Measurements as given in publication PMC3848336, “Aurora Isoform Selectivity: Design and Synthesis of Imidazo[4,5-b]pyridine Derivatives as Highly Selective Inhibitors of Aurora-A Kinase in Cells” (Journal of Medicinal Chemistry, 2013).
Read-outs that look alike come from different tables or passages of the source.

Key:
Assay in all cases: Kinase selectivity profiling
Assay type in all cases: biochemical
BTK = BTK (Homo sapiens, UniProt Q06187)
Description: (§1) Compound 28c was profiled against a panel of 110 kinases at the International Centre for Protein Kinase Profiling, Division of Signal Transduction Therapy, University of Dundee. Compound 40f was profiled against a panel of 50 kinases (MRC-PPU Express Screen) also at the International Centre for Protein Kinase Profiling.

CAMK1 = CAMK1 (Homo sapiens, UniProt Q14012)
Description: as §1

CAMKKb = CAMKKb (Homo sapiens, UniProt Q96RR4)
Description: as §1

CHK2 = CHK2 (Homo sapiens, UniProt O96017)
Description: as §1

CK2 = CK2 (Homo sapiens, UniProt P68400)
Description: as §1

DYRK1A = DYRK1A (Homo sapiens, UniProt Q13627)
Description: as §1

EF2K = EF2K (Homo sapiens, UniProt O00418)
Description: as §1

EPH-A2 = EPH-A2 (Homo sapiens, UniProt P29317); conditions: read-out: % activity remaining, EPH2A2
Description: as §1

GSK3b = GSK3b (Homo sapiens, UniProt P49841)
Description: as §1

HER4 = HER4 (Homo sapiens, UniProt Q15303)
Description: as §1

HIPK2 = HIPK2 (Homo sapiens, UniProt Q9H2X6)
Description: as §1

IGF-1R = IGF-1R (Homo sapiens, UniProt P08069); conditions: read-out: % activity remaining, IGF21R
Description: as §1

IRAK4 = IRAK4 (Homo sapiens, UniProt Q9NWZ3)
Description: as §1

JAK2 = JAK2 (Homo sapiens, UniProt O60674)
Description: as §1

JNK1 = JNK1 (Homo sapiens, UniProt P45983)
Description: as §1

Lck = Lck (Homo sapiens, UniProt P06239)
Description: as §1

MARK3 = MARK3 (Homo sapiens, UniProt P27448)
Description: as §1

MKK1 = MKK1 (Homo sapiens, UniProt Q02750)
Description: as §1

MLK3 = MLK3 (Homo sapiens, UniProt Q16584)
Description: as §1

MSK1 = MSK1 (Homo sapiens, UniProt O75582)
Description: as §1

MST2 = MST2 (Homo sapiens, UniProt Q13188)
Description: as §1

NEK6 = NEK6 (Homo sapiens, UniProt Q9HC98)
Description: as §1

PAK4 = PAK4 (Homo sapiens, UniProt O96013)
Description: as §1

PDK1 = PDK1 (Homo sapiens, UniProt O15530)
Description: as §1

PIM1 = PIM1 (Homo sapiens, UniProt P11309)
Description: as §1

PKA = PKA (Homo sapiens, UniProt P17612)
Description: as §1

PKBa = PKBa (Homo sapiens, UniProt P31749, S473D)
Description: as §1

PKCa = PKCa (Homo sapiens, UniProt P17252)
Description: as §1

PKD1 = PKD1 (Homo sapiens, UniProt Q15139)
Description: as §1

PLK1 = PLK1 (Homo sapiens, UniProt P53350)
Description: as §1

RIPK2 = RIPK2 (Homo sapiens, UniProt O43353)
Description: as §1

ROCK 2 = ROCK 2 (Rattus norvegicus, UniProt Q62868)
Description: as §1

RSK1 = RSK1 (Homo sapiens, UniProt Q15418)
Description: as §1

S6K1 = S6K1 (Homo sapiens, UniProt P23443)
Description: as §1

SGK1 = SGK1 (Homo sapiens, UniProt O00141)
Description: as §1

SYK = SYK (Homo sapiens, UniProt P43405)
Description: as §1

SmMLCK = SmMLCK (Homo sapiens, UniProt Q15746)
Description: as §1

Src = Src (Homo sapiens, UniProt P12931)
Description: as §1

TBK1 = TBK1 (Homo sapiens, UniProt Q9UHD2)
Description: as §1

TTK = TTK (Homo sapiens, UniProt P33981)
Description: as §1

TrkA = TrkA (Homo sapiens, UniProt P04629)
Description: as §1

p38a MAPK = p38a MAPK (Homo sapiens, UniProt Q16539)
Description: as §1

Aurora B = Aurora B (Homo sapiens, UniProt Q96GD4)
[1] = 50-kinase panel (MRC-PPU Express Screen)

IGF-1R, sequence (P08069 31-1367): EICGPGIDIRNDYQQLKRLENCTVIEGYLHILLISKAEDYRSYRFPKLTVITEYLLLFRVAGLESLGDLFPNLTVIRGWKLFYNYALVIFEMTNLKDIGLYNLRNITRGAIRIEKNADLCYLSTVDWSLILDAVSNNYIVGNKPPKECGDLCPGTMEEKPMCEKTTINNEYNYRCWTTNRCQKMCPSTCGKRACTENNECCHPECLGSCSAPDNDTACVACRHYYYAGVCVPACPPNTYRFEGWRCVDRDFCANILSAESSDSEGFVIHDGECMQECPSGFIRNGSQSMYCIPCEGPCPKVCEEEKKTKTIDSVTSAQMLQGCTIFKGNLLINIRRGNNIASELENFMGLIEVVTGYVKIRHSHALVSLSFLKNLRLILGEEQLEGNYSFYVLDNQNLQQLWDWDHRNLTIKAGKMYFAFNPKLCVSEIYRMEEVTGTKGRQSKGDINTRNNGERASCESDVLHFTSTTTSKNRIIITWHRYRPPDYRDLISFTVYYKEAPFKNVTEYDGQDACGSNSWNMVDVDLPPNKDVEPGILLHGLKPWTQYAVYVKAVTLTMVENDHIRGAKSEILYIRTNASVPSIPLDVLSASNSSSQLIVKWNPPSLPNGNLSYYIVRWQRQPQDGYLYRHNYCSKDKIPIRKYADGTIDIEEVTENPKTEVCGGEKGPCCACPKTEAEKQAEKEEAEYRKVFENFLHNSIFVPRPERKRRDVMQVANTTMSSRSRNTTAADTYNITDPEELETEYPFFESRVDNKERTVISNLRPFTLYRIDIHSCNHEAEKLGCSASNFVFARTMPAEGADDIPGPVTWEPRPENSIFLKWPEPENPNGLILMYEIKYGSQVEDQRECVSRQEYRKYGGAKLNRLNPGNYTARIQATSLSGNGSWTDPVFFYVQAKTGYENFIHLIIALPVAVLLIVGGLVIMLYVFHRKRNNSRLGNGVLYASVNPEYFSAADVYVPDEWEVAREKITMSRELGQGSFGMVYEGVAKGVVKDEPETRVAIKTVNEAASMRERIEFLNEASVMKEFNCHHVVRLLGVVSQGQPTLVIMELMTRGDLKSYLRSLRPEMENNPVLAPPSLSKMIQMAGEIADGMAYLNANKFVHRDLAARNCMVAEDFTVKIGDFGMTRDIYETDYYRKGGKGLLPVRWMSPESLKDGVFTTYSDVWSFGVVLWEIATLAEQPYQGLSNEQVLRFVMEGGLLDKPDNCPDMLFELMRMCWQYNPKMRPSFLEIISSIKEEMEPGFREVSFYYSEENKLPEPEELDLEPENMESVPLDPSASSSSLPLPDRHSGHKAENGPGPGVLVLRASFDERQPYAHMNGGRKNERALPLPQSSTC
PKBa, sequence (P31749 118-480 S473D limits assumed): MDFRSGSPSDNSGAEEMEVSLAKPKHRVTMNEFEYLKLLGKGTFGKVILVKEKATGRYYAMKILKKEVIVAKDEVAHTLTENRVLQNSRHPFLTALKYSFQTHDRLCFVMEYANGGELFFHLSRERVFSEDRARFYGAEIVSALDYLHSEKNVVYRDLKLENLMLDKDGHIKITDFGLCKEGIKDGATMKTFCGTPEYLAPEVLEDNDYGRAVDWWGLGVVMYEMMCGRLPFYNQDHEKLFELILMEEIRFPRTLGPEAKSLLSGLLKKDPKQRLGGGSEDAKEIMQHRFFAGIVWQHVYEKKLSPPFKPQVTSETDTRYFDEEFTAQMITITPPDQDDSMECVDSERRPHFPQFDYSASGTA
Lck, sequence (P06239 whole entry): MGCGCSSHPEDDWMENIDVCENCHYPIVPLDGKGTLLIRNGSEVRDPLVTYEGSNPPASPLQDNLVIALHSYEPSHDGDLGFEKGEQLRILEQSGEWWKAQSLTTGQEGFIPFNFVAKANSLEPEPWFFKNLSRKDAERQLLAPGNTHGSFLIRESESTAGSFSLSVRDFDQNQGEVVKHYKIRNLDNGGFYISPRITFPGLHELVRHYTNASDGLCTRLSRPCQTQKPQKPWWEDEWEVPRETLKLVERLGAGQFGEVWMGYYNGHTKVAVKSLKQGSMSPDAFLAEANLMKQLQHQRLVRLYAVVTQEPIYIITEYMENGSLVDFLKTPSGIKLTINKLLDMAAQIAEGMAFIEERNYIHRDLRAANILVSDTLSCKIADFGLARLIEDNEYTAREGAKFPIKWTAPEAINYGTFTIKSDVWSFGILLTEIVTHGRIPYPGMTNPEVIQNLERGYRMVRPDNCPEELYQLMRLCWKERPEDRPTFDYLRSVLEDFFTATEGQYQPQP
HIPK2, sequence (Q9H2X6 whole entry): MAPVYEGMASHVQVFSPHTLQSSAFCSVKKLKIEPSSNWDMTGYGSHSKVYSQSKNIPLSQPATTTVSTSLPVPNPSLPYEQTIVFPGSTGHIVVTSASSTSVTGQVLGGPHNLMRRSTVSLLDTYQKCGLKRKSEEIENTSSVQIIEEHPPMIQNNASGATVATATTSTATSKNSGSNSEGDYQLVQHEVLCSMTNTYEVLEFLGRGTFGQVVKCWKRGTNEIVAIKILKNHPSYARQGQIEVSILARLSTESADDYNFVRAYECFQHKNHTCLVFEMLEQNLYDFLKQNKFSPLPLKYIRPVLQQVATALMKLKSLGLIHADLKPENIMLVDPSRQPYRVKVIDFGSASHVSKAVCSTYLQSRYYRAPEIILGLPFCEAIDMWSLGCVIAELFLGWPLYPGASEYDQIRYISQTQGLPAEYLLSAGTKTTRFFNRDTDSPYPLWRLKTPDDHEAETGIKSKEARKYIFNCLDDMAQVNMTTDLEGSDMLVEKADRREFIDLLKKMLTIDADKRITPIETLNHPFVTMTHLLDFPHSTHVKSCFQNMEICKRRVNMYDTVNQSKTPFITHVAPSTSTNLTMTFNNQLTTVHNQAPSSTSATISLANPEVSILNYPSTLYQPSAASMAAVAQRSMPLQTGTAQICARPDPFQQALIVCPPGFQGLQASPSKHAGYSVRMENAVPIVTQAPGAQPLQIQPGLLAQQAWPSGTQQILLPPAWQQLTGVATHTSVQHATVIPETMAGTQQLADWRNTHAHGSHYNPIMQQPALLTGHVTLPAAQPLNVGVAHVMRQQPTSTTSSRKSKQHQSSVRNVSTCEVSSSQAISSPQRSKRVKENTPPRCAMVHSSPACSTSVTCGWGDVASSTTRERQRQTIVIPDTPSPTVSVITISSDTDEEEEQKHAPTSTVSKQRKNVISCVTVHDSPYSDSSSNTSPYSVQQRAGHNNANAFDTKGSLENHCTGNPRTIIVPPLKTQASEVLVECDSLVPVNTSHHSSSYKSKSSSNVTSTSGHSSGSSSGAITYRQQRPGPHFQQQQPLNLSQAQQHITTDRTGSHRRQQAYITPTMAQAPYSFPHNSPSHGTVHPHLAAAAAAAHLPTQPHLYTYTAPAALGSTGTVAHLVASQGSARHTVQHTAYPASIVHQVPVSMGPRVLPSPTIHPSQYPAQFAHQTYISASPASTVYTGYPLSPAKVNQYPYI
Src, sequence (P12931 whole entry): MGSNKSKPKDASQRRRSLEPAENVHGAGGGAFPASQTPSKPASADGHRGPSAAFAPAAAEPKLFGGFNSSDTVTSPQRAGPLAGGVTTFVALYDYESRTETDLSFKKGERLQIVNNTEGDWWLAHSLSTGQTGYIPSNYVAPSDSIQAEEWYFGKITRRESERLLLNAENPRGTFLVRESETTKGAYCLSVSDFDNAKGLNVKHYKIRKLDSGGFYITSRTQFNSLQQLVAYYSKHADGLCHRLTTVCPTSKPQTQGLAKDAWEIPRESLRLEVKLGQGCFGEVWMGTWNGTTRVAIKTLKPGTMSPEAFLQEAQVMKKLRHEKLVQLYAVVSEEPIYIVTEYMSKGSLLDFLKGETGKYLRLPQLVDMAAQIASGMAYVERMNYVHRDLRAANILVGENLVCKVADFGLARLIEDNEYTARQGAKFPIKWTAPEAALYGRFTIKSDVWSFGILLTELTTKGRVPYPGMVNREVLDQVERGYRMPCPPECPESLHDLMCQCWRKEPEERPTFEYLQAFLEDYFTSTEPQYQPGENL
TrkA, sequence (P04629 33-796, species assumed): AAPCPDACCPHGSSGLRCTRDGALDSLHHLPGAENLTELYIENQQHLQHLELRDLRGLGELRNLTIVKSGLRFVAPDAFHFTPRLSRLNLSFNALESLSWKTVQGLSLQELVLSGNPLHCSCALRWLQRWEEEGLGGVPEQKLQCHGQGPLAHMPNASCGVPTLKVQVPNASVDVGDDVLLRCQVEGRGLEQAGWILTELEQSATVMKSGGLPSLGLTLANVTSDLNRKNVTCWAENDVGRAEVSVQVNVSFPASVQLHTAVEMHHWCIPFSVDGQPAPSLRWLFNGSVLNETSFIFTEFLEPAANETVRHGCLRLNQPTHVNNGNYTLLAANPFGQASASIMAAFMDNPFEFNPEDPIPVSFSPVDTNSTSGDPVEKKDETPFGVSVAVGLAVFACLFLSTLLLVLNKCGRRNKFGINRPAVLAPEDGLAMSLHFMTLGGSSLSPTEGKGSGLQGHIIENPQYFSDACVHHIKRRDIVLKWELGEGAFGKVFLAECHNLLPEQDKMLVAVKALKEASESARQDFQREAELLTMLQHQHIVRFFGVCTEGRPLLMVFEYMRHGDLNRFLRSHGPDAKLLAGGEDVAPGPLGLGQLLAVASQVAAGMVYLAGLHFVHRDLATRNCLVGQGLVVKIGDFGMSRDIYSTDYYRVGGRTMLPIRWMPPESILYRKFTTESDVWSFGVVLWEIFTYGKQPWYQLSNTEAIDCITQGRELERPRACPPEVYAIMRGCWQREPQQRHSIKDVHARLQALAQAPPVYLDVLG
NEK6, sequence (Q9HC98 whole entry): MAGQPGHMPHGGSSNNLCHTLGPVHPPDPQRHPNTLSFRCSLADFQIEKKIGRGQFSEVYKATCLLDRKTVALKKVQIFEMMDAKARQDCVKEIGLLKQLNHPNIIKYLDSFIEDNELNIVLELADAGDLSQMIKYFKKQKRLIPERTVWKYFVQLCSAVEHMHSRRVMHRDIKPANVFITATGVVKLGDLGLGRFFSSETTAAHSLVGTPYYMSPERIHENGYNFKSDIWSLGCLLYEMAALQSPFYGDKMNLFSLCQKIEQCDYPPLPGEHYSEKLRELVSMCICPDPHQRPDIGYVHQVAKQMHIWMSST

SMILES: Cc1nn(C)cc1-c1nc2c(Oc3ccc(C(=O)Nc4ccccc4)cc3)c(Cl)cnc2[nH]1 [compound 28c, 4-((6-Chloro-2-(1,3-dimethyl-1H-pyrazol-4-yl)-3H-imidazo[4,5-b]pyridin-7-yl)oxy)-N-phenylbenzamide]
- remaining activity at 1 µM (BTK; 110-kinase panel): 110%
- remaining activity at 1 µM (CAMK1; 110-kinase panel): 100%
- remaining activity at 1 µM (CAMKKb; 110-kinase panel): 86%
- remaining activity at 1 µM (CHK2; 110-kinase panel): 111%
- remaining activity at 1 µM (CK2; 110-kinase panel): 108%
- remaining activity at 1 µM (DYRK1A; 110-kinase panel): 105%
- remaining activity at 1 µM (EF2K; 110-kinase panel): 93%
- remaining activity at 1 µM (EPH-A2; 110-kinase panel): 138%
- remaining activity at 1 µM (GSK3b; 110-kinase panel): 8%
- remaining activity at 1 µM (HER4; 110-kinase panel): 95%
- remaining activity at 1 µM (HIPK2; 110-kinase panel): 83%
- remaining activity at 1 µM (IGF-1R; 110-kinase panel): 98%
- remaining activity at 1 µM (IRAK4; 110-kinase panel): 95%
- remaining activity at 1 µM (JAK2; 110-kinase panel): 63%
- remaining activity at 1 µM (JNK1; 110-kinase panel): 92%
- remaining activity at 1 µM (Lck; 110-kinase panel): 110%
- remaining activity at 1 µM (MARK3; 110-kinase panel): 83%
- remaining activity at 1 µM (MKK1; 110-kinase panel): 77%
- remaining activity at 1 µM (MLK3; 110-kinase panel): 46%
- remaining activity at 1 µM (MSK1; 110-kinase panel): 89%
- remaining activity at 1 µM (MST2; 110-kinase panel): 106%
- remaining activity at 1 µM (NEK6; 110-kinase panel): 129%
- remaining activity at 1 µM (PAK4; 110-kinase panel): 82%
- remaining activity at 1 µM (PDK1; 110-kinase panel): 87%
- remaining activity at 1 µM (PIM1; 110-kinase panel): 99%
- remaining activity at 1 µM (PKA; 110-kinase panel): 101%
- remaining activity at 1 µM (PKBa; 110-kinase panel): 105%
- remaining activity at 1 µM (PKCa; 110-kinase panel): 110%
- remaining activity at 1 µM (PKD1; 110-kinase panel): 109%
- remaining activity at 1 µM (PLK1; 110-kinase panel): 107%
- remaining activity at 1 µM (RIPK2; 110-kinase panel): 98%
- remaining activity at 1 µM (ROCK 2; 110-kinase panel): 80%
- remaining activity at 1 µM (RSK1; 110-kinase panel): 88%
- remaining activity at 1 µM (S6K1; 110-kinase panel): 81%
- remaining activity at 1 µM (SGK1; 110-kinase panel): 99%
- remaining activity at 1 µM (SYK; 110-kinase panel): 117%
- remaining activity at 1 µM (SmMLCK; 110-kinase panel): 91%
- remaining activity at 1 µM (Src; 110-kinase panel): 80%
- remaining activity at 1 µM (TBK1; 110-kinase panel): 86%
- remaining activity at 1 µM (TTK; 110-kinase panel): 102%
- remaining activity at 1 µM (TrkA; 110-kinase panel): 100%
- remaining activity at 1 µM (p38a MAPK; 110-kinase panel): 91%
- remaining activity at 1 µM (Aurora B; 110-kinase panel): 25%

SMILES: Cc1nn(C)cc1-c1nc2c(Oc3ccc(C(=O)NC4CCC4)cc3)c(Cl)cnc2[nH]1 [compound 40f, 4-((6-Chloro-2-(1,3-dimethyl-1H-pyrazol-4-yl)-3H-imidazo[4,5-b]pyridin-7-yl)oxy)-N-cyclobutylbenzamide]
- remaining activity at 1 µM (BTK; [1]): 101%
- remaining activity at 1 µM (CAMK1; [1]): 85%
- remaining activity at 1 µM (CAMKKb; [1]): 86%
- remaining activity at 1 µM (CHK2; [1]): 85%
- remaining activity at 1 µM (CK2; [1]): 93%
- remaining activity at 1 µM (DYRK1A; [1]): 104%
- remaining activity at 1 µM (EF2K; [1]): 100%
- remaining activity at 1 µM (EPH-A2; [1]): 88%
- remaining activity at 1 µM (GSK3b; [1]): 25%
- remaining activity at 1 µM (HER4; [1]): 92%
- remaining activity at 1 µM (HIPK2; [1]): 98%
- remaining activity at 1 µM (IGF-1R; [1]): 78%
- remaining activity at 1 µM (IRAK4; [1]): 89%
- remaining activity at 1 µM (JAK2; [1]): 75%
- remaining activity at 1 µM (JNK1; [1]): 100%
- remaining activity at 1 µM (Lck; [1]): 95%
- remaining activity at 1 µM (MARK3; [1]): 107%
- remaining activity at 1 µM (MKK1; [1]): 94%
- remaining activity at 1 µM (MLK3; [1]): 31%
- remaining activity at 1 µM (MSK1; [1]): 94%
- remaining activity at 1 µM (MST2; [1]): 141%
- remaining activity at 1 µM (NEK6; [1]): 90%
- remaining activity at 1 µM (PAK4; [1]): 89%
- remaining activity at 1 µM (PDK1; [1]): 86%
- remaining activity at 1 µM (PIM1; [1]): 87%
- remaining activity at 1 µM (PKA; [1]): 90%
- remaining activity at 1 µM (PKBa; [1]): 96%
- remaining activity at 1 µM (PKCa; [1]): 96%
- remaining activity at 1 µM (PKD1; [1]): 113%
- remaining activity at 1 µM (PLK1; [1]): 104%
- remaining activity at 1 µM (RIPK2; [1]): 107%
- remaining activity at 1 µM (ROCK 2; [1]): 73%
- remaining activity at 1 µM (RSK1; [1]): 90%
- remaining activity at 1 µM (S6K1; [1]): 81%
- remaining activity at 1 µM (SGK1; [1]): 85%
- remaining activity at 1 µM (SYK; [1]): 84%
- remaining activity at 1 µM (SmMLCK; [1]): 87%
- remaining activity at 1 µM (Src; [1]): 86%
- remaining activity at 1 µM (TBK1; [1]): 93%
- remaining activity at 1 µM (TTK; [1]): 74%
- remaining activity at 1 µM (TrkA; [1]): 58%
- remaining activity at 1 µM (p38a MAPK; [1]): 107%
- remaining activity at 1 µM (Aurora B; [1]): 66%
